Laboratory results: patent US12357695B2, “Peptides and nanoparticles for intracellular delivery of molecules” (AADIGEN, LLC, priority 2019, dated 2025)
“Also recorded” adds a separate entry of the source. Square brackets hold non-standard residues; d marks the D form. Primed or numbered codes have the meaning given here. Ends that are not written are not given here. Stearyl = stearyl group covalently linked to the N-terminus; PEG4′ = four-unit PEG spacer; PEG2′ = two-unit PEG spacer; PEG7′ = (PEG)7 moiety; Ava = NCCCCC(=O)O; βAla = NCCC(=O)O

Key:
[1] = system: mice or rat models; test: Summary of cargo delivery to targeted organ (Table 1); format: in vivo; details: cargoes and route (IV, IM, SQ, NB) per peptide as listed in Table 1
From the text: Table 1 lists a summary of cell-penetrating peptides that have been proven successful in delivering various cargo molecules to on or more targeted organ (e.g., by intravenous (IV), intramuscular (IM), or subcutaneous (SQ) administration, or intratraccheal instillation or nebulization (NB)) in mice or rat models.

[2] = system: mice; test: In vivo delivery of Luciferase mRNA by targeted ADGN-peptide variants, intravenous (Example 9); details: 5 μg Luc mRNA
[3] = system: 293T cells; test: Cellular delivery of Luciferase mRNA, luciferase expression at 72 hrs; format: cell-based; details: 0.25 μg Luc mRNA; for reduction of efficiency / luciferase expression by modification or linker vs unmodified ADGN peptide: absence of serum or heparan sulfate; for luciferase expression: absence of serum or heparan sulfate treatment; for reduction of efficiency / luciferase expression after serum treatment: complexes incubated 3 hrs in 25% serum prior transfection
Description: FIGS. 1A-1C show luciferase expression in 293T cells treated with ADGN-peptide/mRNA complexes. 293T cells cultured in 48 well plates were transfected with ADGN-peptide nanoparticles. ADGN-100, ADGN-106, ADGN-100RI, ADGN-106RI, ADGN-100 Stearyl, ADGN-Hydro1, ADGN-Hydro2, ADGN-Hydro3, ADGN-Hydro4, ADGN-Hydro5, ADGN-Hydro6 and ADGN-peptide/ADGN-100PEG 10% nanoparticles containing 0.25 μg mRNA were formed in sterile water, diluted in sterile water containing 5% Sucrose and filtered with 0.45 μm PES filters. ADGN/mRNA complexes were incubated for 3 hrs in the presence of either 25% serum or heparan sulfate prior transfection. Luciferase expression was monitored 72 hours post transfection and results were reported as RLU (luminescence):mg of protein.
Complex formation with mRNA. The following protocols were used for the transfection of 2-5 106 Cells or Cells at confluency of about 70-80% cultured in 24 well plates. ADGN peptide/mRNA particles were prepared at a 20:1 molar ratio of ADGN-Peptide/mRNA. using (0.25 μg) mRNA. Luc mRNA (0.25 μg) was diluted in 20 μl of sterile water (GIBCO) at room temperature. 5 μl Final Peptide Solution was added to obtain a total volume of 20 μl. The volume was adjusted to 50 μl with sterile water and was mixed gently with vortex 1 min low speed and incubated 30 min at room temperature. Then the volume was made up to 100 μl by adding sterile water containing 5% sucrose, and the solution was mixed gently with vortex 1 min low speed and incubate 5 min at 37° C. and then was proceeded to cell transfection.
Transfection protocol. Protocol is reported for 24 well plate format. Cells were cultured in Dulbecco's Modified Eagle's Medium (DMEM), supplemented with 2 mM glutamine, 1% antibiotics (streptomycin 10,000 μg/mL, penicillin, 10,000 IU/mL) and 10% (w/v) foetal calf serum (FCS), at 37° C. in a humidified atmosphere containing 5% CO2. 24 well plates seeded with 150,000 cells the day prior to transfection were grown to 50-60% confluence and set up to be at about 70% confluences at the time of transfection. Before transfection, cells were washed twice with DMEM. Cells were then overlaid with 0.1 ml of ADGN-peptide/cargo complex solution containing 0.25 μg mRNA, 0.15 μg plasmid DNA or 10-25 nM siRNA, mixed gently, and incubated for 10 min at 37° C. 0.2 mL of fresh DMEM, were added and cells were incubated for 20 min at 37° C. 1 mL of complete DMEM containing 15% FCS were then added in order to reach a final FCS concentration of 10%, without removing the overlay of ADGN-peptide/cargo complexes. Cells were returned to the incubator (37° C., 5% CO2) and 72 hrs post transfection.
ADGN-peptides were evaluated for cellular delivery of Luciferase mRNA in 293T cells. A single dose of mRNA of 0.25 μg was evaluated. Luc mRNA (0.25 μg) in sterile water (GIBCO) were mixed with ADGN-100, ADGN-100RI, ADGN-106, ADGN-106RI, ADGN-100 Stearyl, ADGN-Hydro1, ADGN-Hydro2, ADGN-Hydro5 and ADGN-Hydro6. ADGN-peptide/mRNA complexes were filtered with 0.45 μm PES filter. In order to evaluate the stability of the ADGN/mRNA complexes in high serum and cell culture conditions, the complexes were incubated for 3 hrs in the presence of either 25% serum or heparan sulfate prior transfection, then 293T cells were transfected and Luciferase expression was monitored at 72 hrs.
ADGN-106 peptides containing YIGSR targeting sequence were evaluated for cellular delivery of Luciferase mRNA in 293T cells. A single dose of mRNA of 0.25 μg was evaluated. Luc mRNA (0.25 μg) in sterile water (GIBCO) were mixed with ADGN-106 and ADGN-106Hydro variant. ADGN-peptide/mRNA complexes were filtered with 0.45 μm PES filter. The ADGN-106/mRNA complexes were incubated for 3 hrs in the presence of 25% serum prior transfection, then 293T cells were transfected and Luciferase expression was monitored at 72 hrs.

Row | Substance | Targeted Organ [1] | target delivery and expression of mRNA (tissues) [2] | also measured
1 | AC-ALWRA(GalNac)LWRLWRSLWRLLWKA-NH2 [ADGN-106GALNAC] | Liver | mRNA accumulation in the liver | 
2 | Ac-ASSLNIA-Ava-KWWERWWREWPRKRR-NH2 [ADGN-103C] |  | negligible luciferase expression | 
3 | Ac-CARPAR-WRSAGWRWRLWRVRSWSR-NH2 (Ac-CARPARWRSAGWRWRLWRVRSWSR-NH2) [ADGN-101] | Heart/Lung | heart and muscles | increase of luciferase expression / efficiency in the lung relative to parent peptide [2]: 6 fold
4 | Ac-CKRAV-RWWLRWASRWFSRWAWWR-NH2 [ADGN-109b] |  | the lung, heart and muscles | 
5 | Ac-CKTRRVP-WRALWRLWRSLWRLLWKA-NH2 (Ac-CKTRRVPWRALWRLWRSLWRLLWKA-NH2) [ADGN-106TD] | Muscle/Heart | heart and muscles | 
6 | Ac-KSYDTYAAETR-RWASRWFSRWAWWR-NH2 [ADGN-109D] |  | the brain and lymphnode and at lower level in liver and kidney | 
7 | Ac-KSYDTY[Ava]ALRWLRWASRWFSRWAWR-NH2 [ADGN-109] |  | the brain and lymphnode and at lower level in liver and kidney | 
8 | Ac-KWRSA(GalNac)LWRWRLWRVRSWSR-NH2 (Ac-KWRSA[GalNAc]LWRWRLWRVRSWSR-NH2; not fully specified; printed as Ac-KWRSA(GalNac)LWRWRLWRVRSWSR-NH2) [ADGN-100GALNAC] | Liver | mRNA accumulation in the liver | 
9 | Ac-LSSRLDA-Ava-KWWERWWREWPRKRR [ADGN-104] |  | heart and muscles and at lower level in the liver | 
10 | Ac-SYTSSTM-Ava-KWWERWWREWPRKRR [ADGN-105] |  | the brain and at lower level in liver, lung and lymphnode | 
11 | Ac-SYTSSTM-Ava-βALWRALWRLWRSLWRLLWKA-NH2 (Ac-SYTSSTM[Ava][βAla]LWRALWRLWRSLWRLLWKA-NH2; SMILES CSCC[C@H](NC(=O)[C@@H](NC(=O)[C@H](CO)NC(=O)[C@H](CO)NC(=O)[C@@H](NC(=O)[C@H](Cc1ccc(O)cc1)NC(=O)[C@H](CO)NC(C)=O)[C@@H](C)O)[C@@H](C)O)C(=O)NCCCCC(=O)NCCC(=O)N[C@@H](CC(C)C)C(=O)N[C@@H](Cc1c[nH]c2ccccc12)C(=O)N[C@@H](CCCNC(=N)N)C(=O)N[C@@H](C)C(=O)N[C@@H](CC(C)C)C(=O)N[C@@H](Cc1c[nH]c2ccccc12)C(=O)N[C@@H](CCCNC(=N)N)C(=O)N[C@@H](CC(C)C)C(=O)N[C@@H](Cc1c[nH]c2ccccc12)C(=O)N[C@@H](CCCNC(=N)N)C(=O)N[C@@H](CO)C(=O)N[C@@H](CC(C)C)C(=O)N[C@@H](Cc1c[nH]c2ccccc12)C(=O)N[C@@H](CCCNC(=N)N)C(=O)N[C@@H](CC(C)C)C(=O)N[C@@H](CC(C)C)C(=O)N[C@@H](Cc1c[nH]c2ccccc12)C(=O)N[C@@H](CCCCN)C(=O)N[C@@H](C)C(N)=O) [ADGN-106TB] | Brain/Liver | the brain | 
12 | Ac-TGNYKALHPDHNG-WRSALRWRLWRWSR-NH2 [ADGN-102] | Brain/Lung | the brain | increase of luciferase expression / efficiency in the lung relative to parent peptide [2]: 3 fold
13 | Ac-THRPPNWSPVWP-RALWRLWRSLWRLRWKA-NH2 (Ac-THRPPNWSPVWPRALWRLWRSLWRLRWKA-NH2) [ADGN-106TC] | Brain | the brain | 
14 | Ac-YIGSR-(G)2-ALWRALWRLWRSLWRLLWKA-NH2 [ADGN-106-Hydro-7] |  |  | reduction of efficiency / luciferase expression by modification or linker vs unmodified ADGN peptide [3]: 28%
15 | Ac-YIGSR-(G)4-ALWRALWRLWRSLWRLLWKA-NH2 (Ac-YIGSRGGGGALWRALWRLWRSLWRLLWKA-NH2) [ADGN-106-Hydro-1] |  |  | luciferase expression [3]: high level of luciferase expression; reduction of efficiency / luciferase expression after serum treatment [3]: 40%
16 | Ac-YIGSR-(PEG)2-βALWRALWRLWRSLWRLLWKA-NH2 (Ac-YIGSR[PEG2′][βAla]LWRALWRLWRSLWRLLWKA-NH2) [ADGN-106-HYPEG2] | Tumor/Lung |  | luciferase expression [3]: high level of luciferase expression; reduction of efficiency / luciferase expression after serum treatment [3]: 21%
17 | Ac-YIGSR-(PEG)4-βALWRALWRLWRSLWRLLWKA-NH2 (Ac-YIGSR[PEG4′][βAla]LWRALWRLWRSLWRLLWKA-NH2) [ADGN-106-HYPEG4] | Tumor/Lung |  | reduction of efficiency / luciferase expression by modification or linker vs unmodified ADGN peptide [3]: 35%
18 | Ac-YIGSR-(PEG)7-βALWRALWRLWRSLWRLLWKA-NH2 (Ac-YIGSR[PEG7′][βAla]LWRALWRLWRSLWRLLWKA-NH2) [ADGN-106-HYPEG7] |  |  | reduction of efficiency / luciferase expression by modification or linker vs unmodified ADGN peptide [3]: 72%
19 | Ac-YIGSR-Ahx-ALWRALWRLWRSLWRLLWKA-NH2 [ADGN-106-Hydro-8] |  |  | luciferase expression [3]: high level of luciferase expression; reduction of efficiency / luciferase expression after serum treatment [3]: 17%; increase of mRNA expression / efficiency in the liver relative to ADGN-106 or ADGN-100 ([2]; liver): 2 folds; increase of efficiency in the muscle relative to ADGN-106 ([2]; muscle): 5 folds
20 | Ac-YIGSR-Ahx-KWRSALWRWRLWRVRSWSR-NH2 [ADGN-100-Hydro-8] | Tumor/Lung |  | increase of efficiency in the kidney relative to ADGN-100 ([2]; kidney): 4 folds; increase of luciferase expression / efficiency in the lung relative to parent peptide [2]: 22 fold
21 | Ac-YIGSR-Aun(CH2)6-ALWRALWRLWRSLWRLLWKA-NH2 [ADGN-106-Hydro-5] | Tumor/Lung/; also recorded: Pancreas/Liver |  | luciferase expression [3]: high level of luciferase expression; reduction of efficiency / luciferase expression after serum treatment [3]: 15%
22 | Ac-YIGSR-Ava(CH2)2-ALWRALWRLWRSLWRLLWKA-NH2 [ADGN-106-Hydro-3] | Tumor/Muscle |  | luciferase expression [3]: high level of luciferase expression; reduction of efficiency / luciferase expression after serum treatment [3]: 32%
23 | Ac-YIGSR-Balwralwrlwrslwrllwka-NH2 (Ac-YIGSR[βAla]LWRALWRLWRSLWRLLWKA-NH2) [ADGN-106-Hydro] |  |  | luciferase expression [3]: high level of luciferase expression; reduction of efficiency / luciferase expression after serum treatment [3]: 80%
24 | Stearyl-βA-ALWRALWRLWRSLWRLLWKA-NH2 (Stearyl-[βAla]ALWRALWRLWRSLWRLLWKA-NH2) [ADGN-106 Stearyl] | Liver/Spleen |  | 
25 | beta-AKWFERWFREWPRKRR (N-terminal beta-alanine; VARIANT 1 beta-A) [VEPEP-3a] | Kidney/Pancreas |  | 
26 | beta-ALRWWLRWASRWFSRWAWWR (N-terminal beta-alanine; VARIANT 1 beta-A) [VEPEP-9] | Brain/Liver/; also recorded: Lung/Kidney/ |  | 
27 | beta-RWWLRWASRWFSRWAWR (not fully specified (residue 1, N-terminus); printed as beta-RWWLRWASRWFSRWAWR) [VEPEP-9C] | Liver/Lung/; also recorded: Kidney/Brain |  | 
